# Assay results: patent US6787564B2, “Optically active clausenamides, process of the preparation thereof, pharmaceutical composition containing the same and their medical use” (Institute of Materia Medica, Chinese Academy of Medical …, priority 2002, dated 2004)
# How the values were obtained:
# calcineurin = calcineurin activity in the cortical and hippocampal tissue; conditions: without HFS; Nimodipine 2 nmol; mean ± S.D., n = 5; control 7.8 ± 0.6
# Description: The rats were anaesthetized with urethane carbonate. The recording and stimulating electrodes were made from Teflon coated stainless steel wires. The bipolar stimulating electrode was sterotaxically placed in the entorhinal cortex to stimulate the perforant path, and the evoked potential was extracellular recorded from the dentate gyrus granule cell layer of ipsilateral. The population spike (PS) is served as an indication of granule cell's excitation. Long term potentiation (LTP) was induced by a 200 Hz high frequency stimulation 5×single square wave pulses of 0.2 ms duration. The drug or vehicle (DMSO) were injected into lateral cerebral ventricle in a 5 μl volume over a 5 min period via a Hamilton syringe.
# calpain = calpain activity in the cortical and hippocampal tissue; format: in vivo, rats; conditions: without HFS, Nimodipine 2 nmol, mean ± S.D., n = 5; for calpain activity, Cortical tissue: control 1.5 ± 0.2; for calpain activity, Hippocampal tissue: control 1.7 ± 0.5
# Description: (§1) The rats were anaesthetized with urethane carbonate.
# mGlu receptor = test: effect of mGlu antagonist on LTP in hippocampal DG in vivo; parameters: species or system rats
# Description: as §1
# 3. Glutamate, the most abundant excitatory neurotransmitter in the CNS, released from presynaptic site and activated a variety of postsynaptic receptor, and then potentiated synaptic transmission. mGlu R (metabotropic glutamate receptor) indirectly regulates signaling and activats various second messenger cascades.
# [1] = system: animals with anisodine-induced memory impairment; test: memory impairment induced by anisodine in water maze test; format: in vivo; conditions: anisodine + drug 500 mg/kg
# Description: (§2) This invention used one trial avoidance task—step-down and step-through tests and water maze to compare the improving memorial effects of (±), (−) clausenamide. The drugs were given orally once to animals before experiment in step-down and step-through tests. The water maze test lasted for 5 days in succession. The results were expressed as latency and errors number.
# animals [2] = test: nootropic action overall: step-down, step-through and water maze tests; format: in vivo; conditions: oral; Tab.4 to Tab.7
# Description: This invention used one trial avoidance task—step-down and step-through tests and water maze to compare the improving memorial effects of (±), (−) clausenamide.
# The drugs were given orally once to animals before experiment in step-down and step-through tests. The water maze test lasted for 5 days in succession. The results were expressed as latency and errors number.
# The effective dose of piracetam was 500 mg.kg^−1.
# A β 25-35 treated rats = test: Morris water maze, A β 25-35 induced impairment of memory; format: in vivo; conditions: for initial heading angle on the 3th day (in words): (−),(+) clausenamide 8 and 40 mg.kg^−1, piracetam 400 mg·kg^−1; for initial heading angle on the 3th day (in words) / latency for finding the platform, 3th to 5th day: vs A β group; for latency for finding the platform, 3th to 5th day: (−),(+) clausenamide 8 and 40 mg·kg^−1, piracetam 400 mg.kg^−1
# Description: Pathological features of Alzheimer's disease (AD) include extensive neuronal loss and the presence of numerous neurofibrillary tangles and senile plaques in the brain. The senile plaques contain amyloid fibrils derived from a 39-43 amino acids peptide referred to as β-amyloid or A β which can produce neurotoxicity. A β 25-35 poccesses the similar neurotoxicity and ability of self-aggregation as A β 1-42. Administrated aggregated A β 25-35 into rat's lateral cerebral ventricle induced memory impairment in Morris water maze.
# With increasing of training days, the initial heading angle became small. On the 3th day, the initial heading angle of A β group was larger than control. […] (see Tab.3)
# There are four strategies for finding platform in Morris water maze: random, circle, taxis and line. In the beginning of training the search strategies for finding target is mainly circle and random, with the increasing of training, the percentage of the two strategies declined gradually, Beginning from the 3th day, declining speed in control and (−) clausenamide group was faster than A β,(+) clausenamide and piracetam groups.
# [3] = system: β-AP (25-35)-treated rats; test: one trial passive avoidance of β-AP (25-35)-treated rats; format: in vivo
# [4] = system: animals with anisodine-induced memory impairment; test: step-through test, memory impairment induced by anisodine; format: in vivo; conditions: 500 mg/kg oral once
# Description: as §2
# animals [5] = test: memory in water maze test; format: in vivo; conditions: 500 mg/kg
# Description: as §2
# [6] = system: animals with anisodine-induced memory impairment; test: step-down test, memory impairment induced by anisodine; format: in vivo; conditions: 500 mg/kg oral once
# Description: as §2
# BDNF = BDNF protein expression in cortical neurons and hippocampal pyramide cells; format: in vivo, rats; conditions: 8, 40 mg·kg^−1 orally daily for 10 days
# [7] = system: dentate gyrus of hippocampus; test: induction of LTP in hippocampal of rat (population spike amplitude); format: in vivo, SD rats; conditions: I.C.V.; means ± SD
# Description: Adult male SD rats were anesthetized to maintain a surgical level. A stainless steel cannula-recording electrode was placed in DG (dentate gyrus) of hippocampus using a stereotaxic instrument. The combination of cannula-recording electrode was constructed by insulating the outside of the cannula, except at the tip and top. In the top noninsulated area, a stainless steel wire was wrapped around the cannula and connected to the amplifier via an amphenol connector. The four pairs optically active clausenamides shown in table 9 was delivered by I.C.V. Responses were evoked via direct stimulation of the performant path (PP) using a stainless steel bipolar stimulating electrode. Constant current stimulation provided by a stimulator was delivered to the stimulating electrode through a Stimulus Isolation Unit.
# The stimulating electrode was adjusted until a characteristic EPSP was observed under constant current. The evoked responses were amplified on a series alternating current preamplifier, using a microcomputer, and then stored for off-line analysis using DataWave software. The current intensity that elicited a 50% maximal response in each animal was determined and used for all subsequent stimulation. To measure treatment effects, responses were evoked once every 30 sec throughout the entire experiment, and population spike amplitude(PSA) were calculated.
# rats = test: mossy fiber sprouting in fascia dentata and hippocampal CA3 region; format: in vivo; conditions: 8 and 40 mg·kg^−1 orally daily for 10 days; adult rat
# Description: 2. […] This is morphological basis for levoclausenamide to incnease synaptic transmission (see FIGS. 1 and 2).
# [8] = system: dentate gyrus granule cells; test: basal synaptic transmission / LTP in dentate gyrus of hippocampus in anesthetized rats (population spike amplitude); format: in vivo; conditions: icv
# Description: Drugs or vehicle injection were delivered via cannula in the lateral cerebral ventricle at final concentration of 2×10^−6 mol/L. The population spike (PS) amplitude was employed as an indication of the level of excitation of the granular cell population in the dentate gyrus. To obtain this measurement, an evoked response was generated in the dentate gyrus granule cell layer by stimulating the pp at low freguency (0.033 Hz) with. single square wave pulses of 0.15 ms duration The LTP formation must accord the following creteria: The PS amplitude increased is over 30% and this high PS amplitude can persist for 40 min.
# [9] = β-AP-treated + drug 400 mg/kg, n = 8
# [10] = β-AP-treated + drug 8 mg/kg, n = 9
# [11] = β-AP-treated + drug 40 mg/kg, n = 9
compound,measurement,setting,value
NC(CCCP(=O)(O)O)C(=O)O (stereo not shown) [AP5],"calcineurin activity, Hippocampal tissue",calcineurin,8.1 ± 0.7 (μmol Pi)/hr/μ g protein
same,"calpain activity, Cortical tissue",calpain,1.6 ± 0.4 ΔA595nm/hr/mg protein
same,"calpain activity, Hippocampal tissue",calpain,1.6 ± 0.6 ΔA595nm/hr/mg protein
"CC(N)(C(=O)O)c1ccc(C(=O)O)cc1 (racemic) [(±) MCPG, (±)-α-methyl-4-carboxyphenylglycine]",induction of LTP induced by HFS and levoclausenamide,"mGlu receptor; 10 μmol, icv",inhibited the induction of LTP
same,established LTP,mGlu receptor; given 15 min after HFS or levoclausenamide,reversed the established LTP
COCCOC(=O)C1=C(C)NC(C)=C(C(=O)OC(C)C)C1c1cccc([N+](=O)[O-])c1 (stereo not shown) [Nimodipine],"calcineurin activity, Hippocampal tissue",calcineurin,7.7 ± 0.8 (μmol Pi)/hr/μ g protein
same,"calpain activity, Cortical tissue",calpain,1.7 ± 0.3 ΔA595nm/hr/mg protein
same,"calpain activity, Hippocampal tissue",calpain,1.8 ± 0.5 ΔA595nm/hr/mg protein
"NC(=O)CN1CCCC1=O [Piracetam, 2-oxo-1 pyrolidine acetamide]",Errors number,[1],23.5 ± 25.0
same,effective dose of piracetam (comparator),animals [2],500 mg/kg
same,initial heading angle on the 3th day (in words),A β 25-35 treated rats,showed no improving effects
same,"latency for finding the platform, 3th to 5th day",A β 25-35 treated rats,showed no effect
same,"initial heading angle, training day 1",A β 25-35 treated rats; A β 25-35 + drug at 400 mg/kg,92.5 ± 28.9
same,"initial heading angle, training day 2",A β 25-35 treated rats; A β 25-35 + drug at 400 mg/kg,87.3 ± 24.2
same,"initial heading angle, training day 3",A β 25-35 treated rats; A β 25-35 + drug at 400 mg/kg,74.6 ± 23.7
same,"initial heading angle, training day 4",A β 25-35 treated rats; A β 25-35 + drug at 400 mg/kg,62.5 ± 19.6
same,"initial heading angle, training day 5",A β 25-35 treated rats; A β 25-35 + drug at 400 mg/kg,44.5 ± 14.3
same,"Number of error, Acquisition",[3]; [9],1.6 ± 0.26
same,"Number of error, Training",[3]; [9],4.1 ± 1.14
same,"Latencies, Step-through",[4]; 0.9% Nacl + anisodine 24.4 ± 59,107 ± 110 s
same,"Error number, Step-through","[4]; N = 10, X ± SD, 0.9% Nacl + anisodine 12.7 ± 4.6",4.1 ± 3.2
same,"Lalencies reaching platform, 3rd day",animals [5]; 0.9% Nacl 25.8 ± 18.4,18.6 ± 9.9 s
same,"Lalencies reaching platform, 4th day",animals [5]; 0.9% Nacl 26.1 ± 38.4,16.7 ± 16.3 s
same,"Lalencies reaching platform, Second day","animals [5]; N = 10, X ± S.D., 0.9% Nacl 32.4 ± 29.2",32.2 ± 22.6 s
same,"Error number, Step-down",[6]; 0.9% Nacl + anisodine 0.9 ± 1.0,0.7 ± 0.5
same,"Latencies, Step-down",[6]; 0.9% Nacl + anisodine 184 ± 105,180 ± 110 s
(+) clausenamide [reference compound],BDNF protein expression in the cortical neurons and pyramide cells in the hippocampus,BDNF,slightly increasing effect only at a dose of 40 mg·kg^−1
same,"PSA (%), 15 min",[7],90.6 ± 0.3%
same,"PSA (%), 30 min",[7],110.1 ± 13.1%
same,"PSA (%), 60 min",[7],106.4 ± 4.1%
same,initial heading angle on the 3th day (in words),A β 25-35 treated rats,showed no improving effects
same,"latency for finding the platform, 3th to 5th day",A β 25-35 treated rats,showed no effect
same,"initial heading angle, training day 1",A β 25-35 treated rats; A β 25-35 + drug at 8 mg/kg,99.4 ± 31.7
same,"initial heading angle, training day 2",A β 25-35 treated rats; A β 25-35 + drug at 8 mg/kg,93.5 ± 29.6
same,"initial heading angle, training day 3",A β 25-35 treated rats; A β 25-35 + drug at 8 mg/kg,82.1 ± 26.7
same,"initial heading angle, training day 4",A β 25-35 treated rats; A β 25-35 + drug at 8 mg/kg,70.2 ± 21.5
same,"initial heading angle, training day 5",A β 25-35 treated rats; A β 25-35 + drug at 8 mg/kg,59.2 ± 18.3
same,"initial heading angle, training day 1",A β 25-35 treated rats; A β 25-35 + drug at 40 mg/kg,112.4 ± 32.8
same,"initial heading angle, training day 2",A β 25-35 treated rats; A β 25-35 + drug at 40 mg/kg,102.5 ± 28.7
same,"initial heading angle, training day 3",A β 25-35 treated rats; A β 25-35 + drug at 40 mg/kg,84.2 ± 22.5
same,"initial heading angle, training day 4",A β 25-35 treated rats; A β 25-35 + drug at 40 mg/kg,83.1 ± 26.5
same,"initial heading angle, training day 5",A β 25-35 treated rats; A β 25-35 + drug at 40 mg/kg,65.4 ± 20.8
same,mossy fiber sprouting in the fascia dentate and stratum lucidum,rats,no significant effect
same,"Number of error, Acquisition",[3]; [10],0.8 ± 0.38
same,"Number of error, Training",[3]; [10],3.3 ± 0.42
same,"Number of error, Acquisition",[3]; [11],1.1 ± 0.19
same,"Number of error, Training",[3]; [11],3.9 ± 2.3
same,"PS % at 15′, in comparison with control (vehicle) group",[8]; 2×10^−6 mol/L,−2.7%
same,"PS % at 30′, in comparison with before drug",[8]; 2×10^−6 mol/L,−5.9%
same,"PS % at 30′, in comparison with control (vehicle) group",[8]; 2×10^−6 mol/L,−12.0%
same,"PS % at 45′, in comparison with before drug",[8]; 2×10^−6 mol/L,−12.9%
same,"PS % at 45′, in comparison with control (vehicle) group",[8]; 2×10^−6 mol/L,−20.0%
same,"PS % at 60′, in comparison with before drug",[8]; 2×10^−6 mol/L,−14.9%
same,"PS % at 60′, in comparison with control (vehicle) group",[8]; 2×10^−6 mol/L,−23.2%
same,PS amplitude 30′ after drug,"[8]; 2×10^−6 mol/L, control 108 ± 7",95 ± 9
same,PS amplitude 45′ after drug,"[8]; 2×10^−6 mol/L, control 110 ± 10",88 ± 15
same,PS amplitude 60′ after drug,"[8]; 2×10^−6 mol/L, control 112 ± 7",86 ± 18
same,PS amplitude 15′ after drug,"[8]; final concentration 2×10^−6 mol/L, control 110 ± 9",107 ± 8
